{"source": "the supplement of paper PMC10307832", "assay_in_all_cases": "relative viability (nuclei count vs DMSO), 5 days (fraction); higher = more cells survive", "key": {"[1]": {"test_system": "LXF-289", "outline": "(§1)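 Cells from lung cancer lines were seeded into 1536-well plates and, one day later, dosed by pin tool. Treatments were either a single drug or a fixed dose of an anchor drug with five library-drug doses (not always all listed) in √10 steps. After 5 days, nuclei were stained in a one-step fixation (final 0.05% Triton X-100, 1% formaldehyde, 1 ug/ml Hoechst) and counted on 4× images, and relative viability is the treated-to-vehicle nuclei ratio, as the median of duplicate plates.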"}, "[2]": {"test_system": "PC-3 [JPC-3]", "outline": "as §1"}, "[3]": {"test_system": "NCI-H2126", "outline": "as §1"}, "[4]": {"test_system": "LOU-NH91", "outline": "as §1"}, "[5]": {"test_system": "NCI-H358", "outline": "as §1"}, "[6]": {"test_system": "NCI-H1734", "outline": "as §1"}, "[7]": {"test_system": "HOP-62", "outline": "as §1"}, "[8]": {"test_system": "LC-2-ad", "outline": "as §1"}, "[9]": {"test_system": "NCI-H1975", "outline": "as §1"}, "[10]": {"test_system": "NCI-H1792", "outline": "as §1"}, "[11]": {"test_system": "NCI-H460", "outline": "as §1"}, "[12]": {"test_system": "NCI-H647", "outline": "as §1"}, "[13]": {"test_system": "SW 1573", "outline": "as §1"}, "[14]": {"test_system": "HCC-15", "outline": "as §1"}, "[15]": {"test_system": "NCI-H2347", "outline": "as §1"}, "[16]": {"test_system": "HCC-78", "outline": "as §1"}, "[17]": {"test_system": "NCI-H2228", "outline": "as §1"}, "[18]": {"test_system": "A-427", "outline": "as §1"}, "[19]": {"test_system": "NCI-H2342", "outline": "as §1"}, "[20]": {"test_system": "SK-LU-1", "outline": "as §1"}, "[21]": {"test_system": "NCI-H1755", "outline": "as §1"}, "[22]": {"test_system": "NCI-H1915", "outline": "as §1"}, "[23]": {"test_system": "RERF-LC-KJ", "outline": "as §1"}}}
{"smiles": "O=C(O)c1ccc(-c2c[nH]c3ncc(-c4ccccc4)cc23)cc1C1CCCC1", "note": "+ Cc1nc(Nc2ncc(C(=O)Nc3c(C)cccc3Cl)s2)cc(N2CCN(CCO)CC2)n1 [Dasatinib] (partner 0.075 µM)", "values": [{"measurement": "relative viability", "setting": "[1]; first compound 0.04 µM", "value": 0.214}, {"measurement": "relative viability", "setting": "[1]; first compound 0.1265 µM", "value": 0.258}, {"measurement": "relative viability", "setting": "[1]; first compound 0.4 µM", "value": 0.181}, {"measurement": "relative viability", "setting": "[1]; first compound 1.265 µM", "value": 0.206}, {"measurement": "relative viability", "setting": "[2]; first compound 0.04 µM", "value": 0.981}, {"measurement": "relative viability", "setting": "[2]; first compound 0.1265 µM", "value": 1.09}, {"measurement": "relative viability", "setting": "[2]; first compound 0.4 µM", "value": 1.07}, {"measurement": "relative viability", "setting": "[2]; first compound 1.265 µM", "value": 0.973}, {"measurement": "relative viability", "setting": "[3]; first compound 0.04 µM", "value": 0.641}, {"measurement": "relative viability", "setting": "[3]; first compound 0.1265 µM", "value": 0.634}, {"measurement": "relative viability", "setting": "[3]; first compound 0.4 µM", "value": 0.642}, {"measurement": "relative viability", "setting": "[3]; first compound 1.265 µM", "value": 0.488}, {"measurement": "relative viability", "setting": "[4]; first compound 0.04 µM", "value": 0.573}, {"measurement": "relative viability", "setting": "[4]; first compound 0.1265 µM", "value": 0.667}, {"measurement": "relative viability", "setting": "[4]; first compound 0.4 µM", "value": 0.508}, {"measurement": "relative viability", "setting": "[4]; first compound 1.265 µM", "value": 0.577}, {"measurement": "relative viability", "setting": "[5]; first compound 0.04 µM", "value": 0.143}, {"measurement": "relative viability", "setting": "[5]; first compound 0.1265 µM", "value": 0.209}, {"measurement": "relative viability", "setting": "[5]; first compound 0.4 µM", "value": 0.209}, {"measurement": "relative viability", "setting": "[5]; first compound 1.265 µM", "value": 0.152}, {"measurement": "relative viability", "setting": "[6]; first compound 0.04 µM", "value": 0.502}, {"measurement": "relative viability", "setting": "[6]; first compound 0.1265 µM", "value": 0.437}, {"measurement": "relative viability", "setting": "[6]; first compound 0.4 µM", "value": 0.468}, {"measurement": "relative viability", "setting": "[6]; first compound 1.265 µM", "value": 0.409}, {"measurement": "relative viability", "setting": "[7]; first compound 0.04 µM", "value": 0.598}, {"measurement": "relative viability", "setting": "[7]; first compound 0.1265 µM", "value": 0.669}, {"measurement": "relative viability", "setting": "[7]; first compound 0.4 µM", "value": 0.78}, {"measurement": "relative viability", "setting": "[7]; first compound 1.265 µM", "value": 0.666}, {"measurement": "relative viability", "setting": "[8]; first compound 0.04 µM", "value": 0.505}, {"measurement": "relative viability", "setting": "[8]; first compound 0.1265 µM", "value": 0.813}, {"measurement": "relative viability", "setting": "[8]; first compound 0.4 µM", "value": 0.489}, {"measurement": "relative viability", "setting": "[8]; first compound 1.265 µM", "value": 0.463}, {"measurement": "relative viability", "setting": "[9]; first compound 0.04 µM", "value": 0.446}, {"measurement": "relative viability", "setting": "[9]; first compound 0.1265 µM", "value": 0.356}, {"measurement": "relative viability", "setting": "[9]; first compound 0.4 µM", "value": 0.408}, {"measurement": "relative viability", "setting": "[9]; first compound 1.265 µM", "value": 0.376}, {"measurement": "relative viability", "setting": "[10]; first compound 0.1265 µM", "value": 0.8}, {"measurement": "relative viability", "setting": "[10]; first compound 0.4 µM", "value": 0.856}, {"measurement": "relative viability", "setting": "[10]; first compound 1.265 µM", "value": 0.847}, {"measurement": "relative viability", "setting": "[11]; first compound 0.04 µM", "value": 0.566}, {"measurement": "relative viability", "setting": "[11]; first compound 0.1265 µM", "value": 0.676}, {"measurement": "relative viability", "setting": "[11]; first compound 0.4 µM", "value": 0.472}, {"measurement": "relative viability", "setting": "[11]; first compound 1.265 µM", "value": 0.428}, {"measurement": "relative viability", "setting": "[12]; first compound 0.04 µM", "value": 0.172}, {"measurement": "relative viability", "setting": "[12]; first compound 0.1265 µM", "value": 0.24}, {"measurement": "relative viability", "setting": "[12]; first compound 0.4 µM", "value": 0.178}, {"measurement": "relative viability", "setting": "[12]; first compound 1.265 µM", "value": 0.139}, {"measurement": "relative viability", "setting": "[13]; first compound 0.04 µM", "value": 0.398}, {"measurement": "relative viability", "setting": "[13]; first compound 0.1265 µM", "value": 0.542}, {"measurement": "relative viability", "setting": "[13]; first compound 0.4 µM", "value": 0.455}, {"measurement": "relative viability", "setting": "[13]; first compound 1.265 µM", "value": 0.392}, {"measurement": "relative viability", "setting": "[14]; first compound 0.04 µM", "value": 0.648}, {"measurement": "relative viability", "setting": "[14]; first compound 0.1265 µM", "value": 0.698}, {"measurement": "relative viability", "setting": "[14]; first compound 0.4 µM", "value": 0.591}, {"measurement": "relative viability", "setting": "[14]; first compound 1.265 µM", "value": 0.38}, {"measurement": "relative viability", "setting": "[15]; first compound 0.04 µM", "value": 0.275}, {"measurement": "relative viability", "setting": "[15]; first compound 0.1265 µM", "value": 0.799}, {"measurement": "relative viability", "setting": "[15]; first compound 0.4 µM", "value": 0.298}, {"measurement": "relative viability", "setting": "[15]; first compound 1.265 µM", "value": 0.299}, {"measurement": "relative viability", "setting": "[16]; first compound 0.1265 µM", "value": 0.516}, {"measurement": "relative viability", "setting": "[16]; first compound 0.4 µM", "value": 0.485}, {"measurement": "relative viability", "setting": "[16]; first compound 1.265 µM", "value": 0.406}, {"measurement": "relative viability", "setting": "[17]; first compound 0.04 µM", "value": 0.601}, {"measurement": "relative viability", "setting": "[17]; first compound 0.1265 µM", "value": 0.607}, {"measurement": "relative viability", "setting": "[17]; first compound 0.4 µM", "value": 0.519}, {"measurement": "relative viability", "setting": "[17]; first compound 1.265 µM", "value": 0.395}, {"measurement": "relative viability", "setting": "[18]; first compound 0.04 µM", "value": 0.672}, {"measurement": "relative viability", "setting": "[18]; first compound 0.1265 µM", "value": 0.749}, {"measurement": "relative viability", "setting": "[18]; first compound 0.4 µM", "value": 0.64}, {"measurement": "relative viability", "setting": "[18]; first compound 1.265 µM", "value": 0.595}, {"measurement": "relative viability", "setting": "[19]; first compound 0.04 µM", "value": 0.34}, {"measurement": "relative viability", "setting": "[19]; first compound 0.1265 µM", "value": 0.377}, {"measurement": "relative viability", "setting": "[19]; first compound 0.4 µM", "value": 0.325}, {"measurement": "relative viability", "setting": "[19]; first compound 1.265 µM", "value": 0.289}, {"measurement": "relative viability", "setting": "[20]; first compound 0.04 µM", "value": 0.169}, {"measurement": "relative viability", "setting": "[20]; first compound 0.1265 µM", "value": 0.194}, {"measurement": "relative viability", "setting": "[20]; first compound 0.4 µM", "value": 0.157}, {"measurement": "relative viability", "setting": "[20]; first compound 1.265 µM", "value": 0.165}, {"measurement": "relative viability", "setting": "[21]; first compound 0.04 µM", "value": 0.394}, {"measurement": "relative viability", "setting": "[21]; first compound 0.1265 µM", "value": 0.541}, {"measurement": "relative viability", "setting": "[21]; first compound 0.4 µM", "value": 0.423}, {"measurement": "relative viability", "setting": "[21]; first compound 1.265 µM", "value": 0.436}, {"measurement": "relative viability", "setting": "[22]; first compound 0.04 µM", "value": 0.297}, {"measurement": "relative viability", "setting": "[22]; first compound 0.1265 µM", "value": 0.331}, {"measurement": "relative viability", "setting": "[22]; first compound 0.4 µM", "value": 0.277}, {"measurement": "relative viability", "setting": "[22]; first compound 1.265 µM", "value": 0.271}, {"measurement": "relative viability", "setting": "[23]; first compound 0.04 µM", "value": 0.758}, {"measurement": "relative viability", "setting": "[23]; first compound 0.1265 µM", "value": 0.778}, {"measurement": "relative viability", "setting": "[23]; first compound 0.4 µM", "value": 0.783}, {"measurement": "relative viability", "setting": "[23]; first compound 1.265 µM", "value": 0.687}]}
